Results on two compounds are retold here after patent publication EP1529535A1, “Isolation of a circulating human lipolytic peptide” (IPF PharmaCeuticals GmbH, priority 2003, dated 2005).

This assay relates to 3T3L1-derived differentiated mouse adipocytes. It is filed as cell-based. As to the method: According to the invention 3T3L1-derived differentiated mouse adipocytes can be used as appropriate cell-system. These cells are treated with fractions of human hemofiltrate and identified using a glycerol-estimation method (GPO-Trinder reagent, Sigma, Deisenhofen, Germany) lipolytic activity. […] It was subsequently isolated in several chromatographic steps using reverse-phase and cation-exchange chromatographic material. 3T3L1 cells were obtained from ATCC. They were grown in DMEM with 10% FCS, penicillin, streptomycin, and L-glutamine for proliferation. For differentiation into the mature adipocyte phenotype, the cells were plated onto 96 well plates (Costar) and treated for three days with differentiation medium (DMEM with 10% FCS, dexamethasone, insulin, L-glutamine and 8-Br-cAMP) and subsequently for three to six days with sustainment medium (DMEM with 10% FCS and L-glutamine). Cells differentiated as described above were then treated for five hours with the hemofiltrate fractions diluted in serum-free medium. An aliquot of the cell supernatant was mixed with the glycerol-estimation-solution (GPO-Trinder Reagent, Sigma, Garching, Germany) and incubated for 15 minutes. Then the absorbance was measured at 540 nm in a 96 well plate ELISA reader (Dynex). […] The colored product is measured at 540 nm in a spectrophotometer. […]

The structures appear in SMILES notation.

For `CSCC[C@H](NC(=O)[C@H](CCCNC(=N)N)NC(=O)[C@H](Cc1ccc(O)cc1)NC(=O)[C@@H]1CCCN1C(=O)CNC(=O)[C@H](CCC(=O)O)NC(=O)[C@H](CC(=O)O)NC(=O)[C@H](CCCCN)NC(=O)[C@H](CCCCN)NC(=O)[C@H](CCC(=O)O)NC(=O)[C@H](C)N)C(=O)N[C@@H](CCC(=O)O)C(=O)N[C@@H](Cc1c[nH]cn1)C(=O)N[C@@H](Cc1ccccc1)C(=O)N[C@@H](CCCNC(=N)N)C(=O)N[C@@H](Cc1c[nH]c2ccccc12)C(=O)NCC(=O)N[C@@H](CO)C(=O)N1CCC[C@H]1C(=O)N1CCC[C@H]1C(=O)N[C@@H](CCCCN)C(=O)N[C@@H](CC(=O)O)C(=O)O` [β-MSH, aekkdegp yrmehfrwgs ppkd], the 50% effective concentration (EC50) is approximately 20 nM.

With `CSCC[C@H](NC(=O)[C@H](CCCNC(=N)N)NC(=O)[C@H](Cc1ccc(O)cc1)NC(=O)[C@@H]1CCCN1C(=O)CNC(=O)[C@H](CCC(=O)O)NC(=O)[C@H](CC(=O)O)NC(=O)[C@H](CCCCN)NC(=O)[C@H](CCCCN)NC(=O)[C@H](CCC(=O)O)NC(=O)[C@H](C)NC(=O)[C@H](C)NC(=O)[C@@H](N)C(C)C)C(=O)N[C@@H](CCC(=O)O)C(=O)N[C@@H](Cc1c[nH]cn1)C(=O)N[C@@H](Cc1ccccc1)C(=O)N[C@@H](CCCNC(=N)N)C(=O)N[C@@H](Cc1c[nH]c2ccccc12)C(=O)NCC(=O)N[C@@H](CO)C(=O)N1CCC[C@H]1C(=O)N1CCC[C@H]1C(=O)N[C@@H](CCCCN)C(=O)N[C@@H](CC(=O)O)C(=O)O` [vaaekkdegp yrmehfrwgs ppkd], the concentration for a half-maximal effect (EC50) is approximately 20 nM.
